Assay [1] relates to Trichophyton mentagrophytes. Briefly: Antimicrobial activity against Trichophyton mentagrophytes at 10 ug/disk. Format: functional. The conditions noted are these: read-out: IZ.
For assay [2], the system named is Candida albicans. Briefly: Antimicrobial activity against Candida albicans at 10 ug/disk. The note with it: read-out: IZ.
The test system of assay [3] is Candida albicans. Nature of the assay: Antimicrobial activity against Candida albicans at 100 ug/disk. The assay is classed as functional. The conditions noted are these: read-out: IZ.
The subject of another assay is Staphylococcus aureus. Briefly: Antimicrobial activity against Staphylococcus aureus at 100 ug/disk. The assay is classed as functional. The note with it: read-out: IZ.
The nature of assay [4]: Inhibition of reverse transcriptase at 1 mg/ml. Also on record: scale not given: the % may be the effect or the level left.
Assay [5] relates to Trichophyton mentagrophytes. Briefly: Antimicrobial activity against Trichophyton mentagrophytes at 100 ug/disk. Format: functional. The note with it: read-out: IZ.
Assay [6] concerns Streptococcus pyogenes. Nature of the assay: Antimicrobial activity against Streptococcus pyogenes at 100 ug/disk. Format: functional. The conditions noted are these: read-out: IZ.
The test system of assay [7] is Nippostrongylus brasiliensis. Nature of the assay: Antihelminthic activity against Nippostrongylus brasiliensis 4 instar larvae assessed as reduction in motility at 50 ug/mL. Also noted: scale not given: the % may be the effect or the level left. The assay is classed as functional.
The subject of assay [8] is Nippostrongylus brasiliensis. Briefly: Antihelminthic activity against Nippostrongylus brasiliensis 4 instar larvae assessed as reduction in viability at 50 ug/mL. The assay is classed as functional.
In a further assay the test system is Escherichia coli. Nature of the assay: Antimicrobial activity against Escherichia coli at 100 ug/disk. The assay is classed as functional. The note with it: read-out: IZ.
For assay [9], the system named is Nippostrongylus brasiliensis. Briefly: Antihelminthic activity against Nippostrongylus brasiliensis 4 instar larvae assessed as reduction in cast formation at 50 ug/mL. The assay is classed as functional. Also noted: scale not given: the % may be the effect or the level left.
Assay [10] relates to Streptococcus pyogenes. Briefly: Antimicrobial activity against Streptococcus pyogenes at 10 ug/disk. Format: functional, organism-based.

`Clc1ccc(COC(Cn2ccnc2)c2ccc(Cl)cc2Cl)c(Cl)c1` (stereo not drawn) [MICONAZOLE]: the zone of inhibition at 10 µg/disc in [1] came to 11 mm; in the assay with Candida albicans [2], 10 mm.

Consider `CC/C=C/CCCCCCC[C@@H](O)[C@H](C)N` (relative stereo) [XETOAMINOL A], for which the zone of inhibition at 100 µg/disc in the assay with Candida albicans [3] amounted to 7 mm; in the assay with Staphylococcus aureus it was 3 mm; in assay [5] it was 13 mm; with Streptococcus pyogenes [6] it was 4 mm; in the assay on Escherichia coli, 7 mm. The Activity in assay [4] was found to be 97%; in assay [7], 100%; in assay [8], 100%; in assay [9], 90%.

In the assay with Streptococcus pyogenes [10], GENTAMICIN displayed an inhibition zone (IZ) of 10 mm.

With `CCCCCCCCCCC[C@@H](O)[C@H](C)N` (relative stereo), in [4], the Activity was 95%.

Values taken from ChEMBL document CHEMBL1158918, “Novel marine sponge amino acids, 10. Xestoaminols from Xestospongia sp” (1990).
